Results on one molecule are retold here after ChEMBL document CHEMBL5120812, “Cytotoxic Nitrobenzoyl Sesquiterpenoids from an Antarctica Sponge-Derived Aspergillus insulicola” (J Nat Prod, 2022).

For assay [1], the system named is PANC-1. The experiment in a line: Antiinvasive activity in human PANC-1 cells assessed as decrease in cell invasion at 0.94 to 3.75 uM incubated for 24 hrs by crystal violet staining based transwell assay. Type of assay: functional. The conditions noted are these: dose 0.94-3.75 µM.
For assay [2], the system named is PANC-1. As to the kind of experiment: Cytotoxicity against human PANC-1 cells assessed as inhibition of cell proliferation at 0.94 to 30 uM by SRB assay. Type of assay: functional, cell-based. The settings on record: dose 0.94-30 µM, time 24-72 hrs, TDE = time-dependent effect.
The target of assay [3] is Epidermal growth factor receptor (Homo sapiens) (UniProt P00533). The experiment in a line: Inhibition of EGFR downstream signalling in human PANC-1 cells assessed as reduction of STAT3 phosphorylation upto 5 uM incubated for 24 hrs by Western blot analysis. Type of assay: cell-based. (A western blot detects proteins with antibodies after separation by electrophoresis.)

The subject of assay [4] is ASPC1. The experiment in a line: Induction of apoptosis in human ASPC1 cells assessed as viable cells at 1.25 uM incubated for 24 hrs by annexinV-FITC and PI staining based flow cytometry analysis (reference value: 96.0 %). Type of assay: functional. The conditions noted are these: read-out: Activity. In general terms: In flow cytometry, cells or beads pass a laser one at a time.

Assay [5] concerns ASPC1. As to the kind of experiment: Induction of apoptosis in human ASPC1 cells assessed as early apoptotic cells at 1.25 uM incubated for 24 hrs by annexinV-FITC and PI staining based flow cytometry analysis (reference value: 1.56 %). Type of assay: functional.
Assay [6] relates to ASPC1. The experiment in a line: Induction of apoptosis in human ASPC1 cells assessed as early apoptotic cells at 5 uM incubated for 24 hrs by annexinV-FITC and PI staining based flow cytometry analysis (reference value: 1.56 %). Type of assay: functional.
Assay [7] concerns ASPC1. As to the kind of experiment: Induction of apoptosis in human ASPC1 cells assessed as late apoptotic cells at 5 uM incubated for 24 hrs by annexinV-FITC and PI staining based flow cytometry analysis (reference value: 2.18 %). Type of assay: functional.
The test system of assay [8] is ASPC1. The experiment in a line: Induction of apoptosis in human ASPC1 cells assessed as necrotic cells at 2.50 uM incubated for 24 hrs by annexinV-FITC and PI staining based flow cytometry analysis (reference value: 0.27 %). Type of assay: functional. The conditions noted are these: dose 2.5 µM.
Assay [9] has as its system ASPC1. As to the kind of experiment: Induction of apoptosis in human ASPC1 cells assessed as necrotic cells at 5 uM incubated for 24 hrs by annexinV-FITC and PI staining based flow cytometry analysis (reference value: 0.27 %). Type of assay: functional.
Assay [10] relates to PANC-1. The experiment in a line: Induction of apoptosis in human PANC-1 cells assessed as early apototic cells at 1.25 uM incubated for 24 hrs by annexinV-FITC and PI staining based flow cytometry analysis (reference value: 4.66 %). Type of assay: functional.
Assay [11] has as its system PANC-1. As to the kind of experiment: Induction of apoptosis in human PANC-1 cells assessed as early apototic cells at 2.50 uM incubated for 24 hrs by annexinV-FITC and PI staining based flow cytometry analysis (reference value: 4.66 %). Type of assay: functional. The conditions noted are these: dose 2.5 µM.
For assay [12], the system named is PANC-1. As to the kind of experiment: Induction of apoptosis in human PANC-1 cells assessed as late apototic cells at 1.25 uM incubated for 24 hrs by annexinV-FITC and PI staining based flow cytometry analysis (reference value: 5.71 %). Type of assay: functional.
Assay [13] has as its system PANC-1. The experiment in a line: Induction of apoptosis in human PANC-1 cells assessed as late apototic cells at 2.50 uM incubated for 24 hrs by annexinV-FITC and PI staining based flow cytometry analysis (reference value: 5.71 %). Type of assay: functional. The settings on record: dose 2.5 µM.
In assay [14] the test system is PANC-1. The experiment in a line: Induction of apoptosis in human PANC-1 cells assessed as late apototic cells at 5 uM incubated for 24 hrs by annexinV-FITC and PI staining based flow cytometry analysis (reference value: 5.71 %). Type of assay: functional.
In assay [15] the test system is PANC-1. As to the kind of experiment: Induction of apoptosis in human PANC-1 cells assessed as necrotic cells at 1.25 uM incubated for 24 hrs by annexinV-FITC and PI staining based flow cytometry analysis (reference value: 0.14 %). Type of assay: functional.
The test system of assay [16] is PANC-1. The experiment in a line: Induction of apoptosis in human PANC-1 cells assessed as necrotic cells at 2.50 uM incubated for 24 hrs by annexinV-FITC and PI staining based flow cytometry analysis (reference value: 0.14 %). Type of assay: functional. The settings on record: dose 2.5 µM.
In assay [17] the test system is ASPC1. The experiment in a line: Induction of apoptosis in human ASPC1 cells assessed as increase in cleaved caspase 3 level incubated for 24 hrs by Western blot analysis. Type of assay: functional, cell-based. The conditions noted are these: dose 1.25-5 µM, DDE = dose-dependent effect.
Assay [18] relates to ASPC1. As to the kind of experiment: Induction of apoptosis in human ASPC1 cells assessed as increase in PARP level incubated for 24 hrs by Western blot analysis. Type of assay: functional, cell-based. The settings on record: dose 1.25-5 µM, DDE = dose-dependent effect.
The subject of assay [19] is PANC-1. The experiment in a line: Induction of apoptosis in human PANC-1 cells assessed as increase in PARP level incubated for 24 hrs by Western blot analysis. Type of assay: functional, cell-based. The conditions noted are these: dose 1.25-5 µM, DDE = dose-dependent effect.
In assay [20] the test system is ASPC1. The experiment in a line: Induction of apoptosis in human ASPC1 cells assessed as suppression of XIAP expression at upto 5 uM incubated for 24 hrs by Western blot analysis. Type of assay: functional, cell-based.
Assay [21] deals with ASPC1. As to the kind of experiment: Induction of apoptosis in human ASPC1 cells assessed as increase in caspase 3 enzymatic activity upto 5 uM incubated for 24 hrs by Western blot analysis. Type of assay: functional, cell-based.
Assay [22] deals with PANC-1. As to the kind of experiment: Induction of apoptosis in human PANC-1 cells assessed as increase in caspase 3 enzymatic activity upto 5 uM incubated for 24 hrs by Western blot analysis. Type of assay: functional, cell-based.
Assay [23] relates to ASPC1. As to the kind of experiment: Antiinvasive activity in human ASPC1 cells assessed as decrease in cell invasion at 0.94 to 3.75 uM incubated for 24 hrs by crystal violet staining based transwell assay. Type of assay: functional. The settings on record: dose 0.94-3.75 µM.
In assay [24] the test system is PANC-1. As to the kind of experiment: Cytotoxicity against human PANC-1 cells assessed as inhibition of cell proliferation incubated for 24 to 72 hrs by SRB assay. Type of assay: functional, cell-based. The conditions noted are these: dose 0.94-30 µM, time 24-72 hrs, DDE = dose-dependent effect. (The SRB assay estimates cell density from bound dye.)

Structures are written as SMILES. Activity calls are given as the source filed them. The rule behind the calls is not given here.

Chain of Epidermal growth factor receptor (Homo sapiens) (P00533 whole entry): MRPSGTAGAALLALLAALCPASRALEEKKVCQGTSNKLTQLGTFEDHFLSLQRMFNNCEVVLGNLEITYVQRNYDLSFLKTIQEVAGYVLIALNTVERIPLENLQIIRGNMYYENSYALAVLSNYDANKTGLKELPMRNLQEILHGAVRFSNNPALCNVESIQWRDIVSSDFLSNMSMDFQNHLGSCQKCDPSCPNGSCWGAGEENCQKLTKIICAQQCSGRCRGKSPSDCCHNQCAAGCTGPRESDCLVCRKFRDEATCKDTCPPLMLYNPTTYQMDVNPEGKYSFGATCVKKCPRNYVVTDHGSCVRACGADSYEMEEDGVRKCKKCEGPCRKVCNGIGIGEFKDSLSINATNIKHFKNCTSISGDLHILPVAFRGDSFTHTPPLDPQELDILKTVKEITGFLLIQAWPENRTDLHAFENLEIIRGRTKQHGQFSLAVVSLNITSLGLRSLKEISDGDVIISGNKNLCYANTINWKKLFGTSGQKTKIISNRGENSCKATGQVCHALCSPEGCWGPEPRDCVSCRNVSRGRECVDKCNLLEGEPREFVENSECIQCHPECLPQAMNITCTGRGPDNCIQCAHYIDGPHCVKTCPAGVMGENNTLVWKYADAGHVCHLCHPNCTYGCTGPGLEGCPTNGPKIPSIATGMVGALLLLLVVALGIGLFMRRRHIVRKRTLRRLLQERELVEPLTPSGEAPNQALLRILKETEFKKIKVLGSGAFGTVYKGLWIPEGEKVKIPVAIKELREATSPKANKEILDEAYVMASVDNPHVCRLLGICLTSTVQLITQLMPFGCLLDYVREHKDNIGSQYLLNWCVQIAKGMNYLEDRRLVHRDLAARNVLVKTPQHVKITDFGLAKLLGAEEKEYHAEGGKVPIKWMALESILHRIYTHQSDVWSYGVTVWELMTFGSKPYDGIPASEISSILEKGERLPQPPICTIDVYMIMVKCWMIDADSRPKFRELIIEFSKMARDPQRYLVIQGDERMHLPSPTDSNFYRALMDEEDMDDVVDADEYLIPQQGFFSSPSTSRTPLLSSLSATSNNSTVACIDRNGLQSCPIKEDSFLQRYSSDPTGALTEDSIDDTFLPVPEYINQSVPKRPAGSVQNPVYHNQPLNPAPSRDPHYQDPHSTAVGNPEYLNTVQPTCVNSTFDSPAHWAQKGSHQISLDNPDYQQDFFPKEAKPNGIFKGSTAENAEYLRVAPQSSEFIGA

`COC(=O)CCCCCCC/C=C/C(=O)OC[C@@]1(C)CCC[C@@]2(C)[C@H]1[C@H](OC(=O)c1ccc([N+](=O)[O-])cc1)C=C1C(=O)OC[C@@]12O`: the result in [1], in assay [20], in assay [21], in assay [22] and in assay [23] was Active. Besides, the Activity entry in [2] is “Tde”; in assay [5] it was 5.77%; in assay [6], 2.98%; in [7], 10.1%; in assay [8], 0.38%; in [9], 1.79%. Also, the Activity amounted to 5.99% in assay [10]; 5.58% in [11]; 3.09% in assay [12]; 13.6% in assay [13]; 23.1% in assay [14]; 0.22% in assay [15]. Moreover, the Activity is 0.25% in [16]; “Dde” in assay [17]; “Dde” in [18]; “Dde” in assay [19]; “Dde” in assay [24]. For the same molecule, the inhibition entry in assay [3] is “Active”. Further, the viability at 1.25 µM in assay [4] was found to be 90.1%.
